Results on three compounds are retold here after ChEMBL document CHEMBL1932915, “Synthesis and biological evaluation of sialic acid derivatives containing a long hydrophobic chain at the anomeric position and their C-5 linked polymers as potent influenza virus inhibitors” (Bioorg Med Chem, 2012).

For experiment [1], the target named is Neuraminidase (Influenza A virus (A/Aichi/2/1968(H3N2)), UniProt Q75VQ4). In words: Inhibition of Human influenza virus A/Aichi/2/68 (H3N2) neuraminidase using 4-MU-Neu5Ac as substrate after 30 mins by fluorimetry.
In another experiment the target is Neuraminidase (Influenza A virus, UniProt B4URF0). In words: Inhibition of Avian influenza virus A/DK/HK/313/78 (H5N3) neuraminidase using 4-MU-Neu5Ac as substrate after 30 mins by fluorimetry.
In experiment [2] the target is Neuraminidase (Influenza A virus (A/Puerto Rico/8/1934(H1N1)), UniProt P03468). The experiment in a line: Inhibition of Human influenza virus A/PR/8/34 (H1N1) neuraminidase using 4-MU-Neu5Ac as substrate after 30 mins by fluorimetry.
Experiment [3] can be described thus: Inhibition of Avian influenza virus A/DK/HK/313/78 (H5N3) hemagglutininin activity in chicken erythrocytes after 1 hr. It counts as cell-based.

Sequence of Neuraminidase (B4URF0 whole entry): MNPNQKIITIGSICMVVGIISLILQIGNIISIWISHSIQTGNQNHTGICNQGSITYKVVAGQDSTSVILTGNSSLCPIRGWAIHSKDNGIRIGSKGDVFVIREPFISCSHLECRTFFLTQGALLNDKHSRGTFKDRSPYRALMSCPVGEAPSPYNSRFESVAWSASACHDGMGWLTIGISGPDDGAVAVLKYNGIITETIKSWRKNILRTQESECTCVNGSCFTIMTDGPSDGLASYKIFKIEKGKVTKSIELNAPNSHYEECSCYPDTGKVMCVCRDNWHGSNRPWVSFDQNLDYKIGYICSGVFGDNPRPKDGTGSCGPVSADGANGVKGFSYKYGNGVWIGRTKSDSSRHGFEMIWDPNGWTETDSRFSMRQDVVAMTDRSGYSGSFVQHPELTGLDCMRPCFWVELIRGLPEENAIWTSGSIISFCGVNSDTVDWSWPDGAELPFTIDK
Sequence of Neuraminidase (Influenza A virus (A/Aichi/2/1968(H3N2)), UniProt Q75VQ4) (Q75VQ4 whole entry): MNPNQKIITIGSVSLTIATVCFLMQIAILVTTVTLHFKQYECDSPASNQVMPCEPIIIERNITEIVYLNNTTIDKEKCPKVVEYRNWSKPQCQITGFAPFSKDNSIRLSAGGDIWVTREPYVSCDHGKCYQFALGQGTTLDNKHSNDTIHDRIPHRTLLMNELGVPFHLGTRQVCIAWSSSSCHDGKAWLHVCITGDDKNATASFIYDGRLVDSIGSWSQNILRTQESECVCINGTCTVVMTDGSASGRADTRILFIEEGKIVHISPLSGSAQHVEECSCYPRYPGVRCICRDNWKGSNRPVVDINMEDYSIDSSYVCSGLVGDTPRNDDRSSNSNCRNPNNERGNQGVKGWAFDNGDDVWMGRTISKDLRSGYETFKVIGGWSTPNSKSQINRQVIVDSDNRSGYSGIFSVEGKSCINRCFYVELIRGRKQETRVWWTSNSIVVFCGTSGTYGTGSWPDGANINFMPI
Sequence of Neuraminidase (Influenza A virus (A/Puerto Rico/8/1934(H1N1)), UniProt P03468) (P03468 whole entry): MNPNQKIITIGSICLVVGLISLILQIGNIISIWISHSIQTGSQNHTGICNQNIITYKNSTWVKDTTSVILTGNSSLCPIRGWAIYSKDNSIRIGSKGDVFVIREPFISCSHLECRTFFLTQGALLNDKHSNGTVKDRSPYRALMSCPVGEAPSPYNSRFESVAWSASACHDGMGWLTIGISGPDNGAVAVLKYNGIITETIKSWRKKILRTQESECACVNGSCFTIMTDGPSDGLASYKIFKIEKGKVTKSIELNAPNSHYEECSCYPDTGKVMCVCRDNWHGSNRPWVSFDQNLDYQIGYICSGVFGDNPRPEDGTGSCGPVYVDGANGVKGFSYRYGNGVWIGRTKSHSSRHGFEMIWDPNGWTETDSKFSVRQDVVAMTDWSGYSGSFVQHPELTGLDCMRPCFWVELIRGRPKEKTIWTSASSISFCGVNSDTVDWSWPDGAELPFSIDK

Usually EC50 stands for the concentration giving half of the maximal effect. Read a low EC50 as higher potency in that assay. With `C=CC(=O)N[C@H]1[C@H]([C@H](O)[C@H](O)CO)O[C@@](SCCCCCCCCCCCC)(C(=O)O)C[C@@H]1O`, the EC50 in experiment [1] came out at 428 µM; on Neuraminidase, 533 µM; in experiment [2] it was 1.35 mM.
One may read the IC50 as the concentration needed to halve the response being measured. Higher therefore signals weaker potency in that assay. On to `C=CC(=O)N[C@H]1[C@H]([C@H](O)[C@H](O)CO)OC(O)(C(=O)O)C[C@@H]1O` (stereo not given in full), for which, in experiment [3], the half-maximal inhibitory concentration (IC50) was more than 250 µM. The EC50 in experiment [1] stood at 1080 µM; on Neuraminidase it was 609 µM; in experiment [2], 2.48 mM.
In the case of `C=CC(=O)NCCCCCC(=O)N[C@H]1[C@H]([C@H](O)[C@H](O)CO)O[C@@](SCCCCCCCCCCCC)(C(=O)O)C[C@@H]1O`, the results for the EC50 (in experiment [1]; on Neuraminidase; in experiment [2]) were 840 µM, 102 µM and 0.743 mM, respectively.
